Experimental findings from a melting point compilation (Tetko et al.; mined from patent text by program, amines drawn as free bases though some values may be those of a salt) are described below.

Where only a bound is given, the exact number is not on record here.

As for `O=C(O)CCc1cn(Cc2ccc(OCc3cccnc3)cc2)nc1OCc1cccnc1`, the melting point (commonly the temperature of the solid-liquid transition) lay in the range of 116 to 117 °C. Compound `OCc1cc(-c2cnn3c(C(F)(F)F)cc(-c4ccc(Cl)c(Cl)c4)nc23)ccn1` gave a melting point of 233 °C.

In turn, `O=C(Nc1cc(C(F)(F)F)cc(C(F)(F)F)c1)c1ccccc1O` registered a melting point of 196 to 198 °C. For the compound `O=C(C1CCCN1C(=O)CCCN1C(=O)c2ccccc2C1=O)N1CCCC1` (stereo not given), the melting point fell in the range of 148 to 149 °C.

In turn, `CC1(C)CC(c2ccc3ccccc3n2)c2cc(C#N)ccc2O1` (stereo not given) had a melting point of 174 to 176 °C. Compound `O=C(Cn1c(-c2ccc(Cl)cc2)nc2cccnc21)Nc1nccs1` showed a melting point of over 260 °C.

For `Cc1n[nH]c(=O)n1-c1ccc(OCC(F)(F)C(F)F)cc1`, the melting point lay within 206 to 207 °C. On to `CC(=O)NCC1CN(c2ccc(N3CCN(c4nc5cccc(F)c5o4)CC3)c(F)c2)C(=O)O1` (stereo not given), for which the melting point is 201 to 202 °C. Under `COc1ccc(-c2nnn(-c3ccc(Cl)cc3Cl)c2N)cc1` stands 149 to 151 °C; under `O=C(Cl)c1sc2ccc(Oc3ccccc3)cc2c1Cl`, 117 to 119 °C; under `CC(C)(C)c1ccc(Cl)c(C(=O)O)c1`, 99 to 103 °C. Compound `C=C(C)C(=O)Oc1ccc2ccc(O)c(-n3nc4ccccc4n3)c2c1` came in with a melting point of 167 to 168 °C. With `COCCOc1ccccc1-c1cc2[nH]c3ccc(O)cc3c2c2c1C(=O)NC2=O`, the melting point lay in the range of 275 to 279 °C. `COc1ccccc1N(C(N)=O)c1ccc(CC(=O)O)cc1C` showed a melting point of 260 to 264 °C. For the compound `C#CCOC(=O)C1=C(C)NC(C)=C(C(=O)OCC)C1c1ccccc1C(F)(F)F` (stereo not given), the melting point was 130 °C. For `CC[C@@H](C)[C@H](CC(C(=O)O)C(=O)O)C(=O)OC`, the melting point turned out to be 98 °C.

As to `COc1cc2c(cc1OS(N)(=O)=O)CC(C)(C)N(C(=O)c1cc(OC)c(OC)c(OC)c1)C2C` (stereo not given), the melting point was in the range of 170 to 173 °C. As to `COC(=O)c1ccc2c(Cl)c(C(=O)Cl)sc2c1`, the melting point lay within 259 to 260 °C. As to `CCCC(CCNC(=O)C(C#N)=Cc1cc(O)c(O)c(O)c1)NC(=O)C(C#N)=Cc1cc(O)c(O)c(O)c1` (stereo not given), the melting point was over 300 °C.

Take `Nn1c(C(F)(F)F)cc(-c2ccc(C(F)(F)F)cc2)cc1=O`: the melting point came out at 125 °C. `CC(C)(CO)C(O)C(=O)NCc1cccnc1` (stereo not given) yielded a melting point of 120 to 122 °C.

With `COc1ccc2c(c1)C(CCNC(=O)C(F)(F)F)=C(Cc1ccccc1)C2`, the melting point fell in the range of 126 to 128 °C. To `COc1cc(COc2nn(-c3ccccc3)cc2/C=C/S(C)(=O)=O)ccc1OCc1nc(-c2ccco2)oc1C` belongs 152 to 153 °C. `CC(C)(C)OC(=O)n1cc(C(=O)c2ccn3c2CSC3c2cccnc2)c2ccccc21` (stereo not given) yielded a melting point of 150 to 152 °C. To `Cc1ccc(C(=O)c2cccc3c2CCC3(C)C(=O)O)cc1` (stereo not given) belongs 99 to 101 °C; to `COC(=O)CCCc1cc2nc(Cl)ccc2n1S(=O)(=O)c1c(F)cccc1F`, 107 to 109 °C.

Regarding `OC(Cc1ccnc2ccccc12)C(Cl)(Cl)Cl` (stereo not given), the melting point was in the range of 190 to 192 °C. For the compound `CCOC(=O)C=CC(=O)Nc1ccc2c(Nc3cccc(Br)c3)ncnc2c1`, the melting point was over 260 °C. For the compound `C=C(C)COC(=O)N1CCN(c2c(C(=O)N3CCN(C)CC3)c3ccccc3n2-c2ccccc2)CC1`, the melting point was in the range of 141 to 143 °C. `CC(=O)NCCCCOC1c2ccccc2C(=O)N1c1ccc2ccc(Cl)nc2n1` (stereo not given) gave a melting point of 120 °C. For `c1ccc2c(c1)CSc1nnnn1-2`, the melting point came to 137 °C. To `O=C(O)CCCCSc1nc(-c2ccccc2)c(-c2ccccc2)[nH]1` belongs 190 to 195 °C; to `COc1cc2c(c(OC)c1OC)C(=O)c1c-2n(C)c(=O)c2ccccc12`, 194 to 195 °C; to `Cc1cccc(-c2nc3cccnn3c2-c2ccnc(Nc3ccccc3C)c2)c1`, 208 to 209 °C.

Compound `CCC1(CC)CC(c2ccc(F)cc2)=C(c2ccc(S(N)(=O)=O)cc2)C1` registered a melting point of 101 °C. On to `Cn1cc(-c2ccccc2S(N)(=O)=O)cn1`, for which the melting point was in the range of 183 to 186 °C.

`Clc1cccc2c1Nc1ccccc1N=C2N1CCN(Cc2ccc3c(c2)OCO3)CC1` returned a melting point of 160 to 162 °C. Turning to `CCC(C)C(S)C(=O)NC1(C(=O)NC(Cc2ccc(-c3ccco3)nc2)C(=O)O)CCCC1` (stereo not given), the melting point lay in the range of 175 to 180 °C. For the compound `OCc1cnoc1-c1ccc(F)cc1`, the melting point lay in the range of 41 to 42 °C. For `CCOC(=O)c1c(CN(C)O)nc2sc3c(c2c1-c1ccc(OC)c(OC)c1)CCN(C(=O)c1ccccc1)C3`, the melting point is 129 to 130 °C. Compound `O=C1NC(C(=O)NCCCO[N+](=O)[O-])CS1` (stereo not given) yielded a melting point of 83 to 85 °C. Take `O=C(O)CCC(F)(F)C(F)(F)CCC(=O)O`: the melting point amounted to 204 °C. The compound `CCOC(=O)c1sc2cc(CO)ccc2c1Sc1cccc(OC)c1` came in with a melting point of 110 to 112 °C. As for `O=C(Nc1ccc(C(=O)N2CCCc3ccccc32)cc1)c1cccc(O)c1`, the melting point was 217 to 218 °C. To `COc1ccc(C(=O)Nc2c(C)c(C)c3c(c2C)C(c2ccc(C)cc2)C(C)(C)O3)cc1` (stereo not given) belongs 161 to 163 °C.

`Nn1c(C2CCCCC2)nnc(-c2ccccc2)c1=O` came in with a melting point of 178 to 180 °C.

The compound `Nc1nc(-n2cc(C(=O)O)c(=O)c3cc(F)c(N4CC(O)C4)c(Cl)c32)c(F)cc1F` returned a melting point of 235 to 238 °C. In turn, `NC1=CC(=O)C2CCCCC2C1` (stereo not given) showed a melting point of 208 to 210 °C. As to `CC(=O)OCc1ccc(-c2nc(=O)c3ccccc3s2)cn1`, the melting point was in the range of 171 to 172 °C. Compound `N#Cc1cc(F)c(-n2nc(C(F)(F)F)[nH]c2=O)cc1F` had a melting point of 51 °C.

Compound `CSc1ccc(-c2nc(SC)c(C#N)c(=O)n2-c2ccc(C)cc2C)cc1` showed a melting point of 203 to 205 °C. Compound `COc1cc(C=C2OC(C)=CC2=O)ccc1O` registered a melting point of 168 to 170 °C. Under `COC(=O)C1Cc2c([nH]c3ccccc23)C(c2ccccc2Cl)N1` (stereo not given) stands 154 °C; under `CCCCn1c(=O)c2c(ncn2S(=O)(=O)c2cccs2)n(CCCC)c1=O`, 145 to 146 °C. The compound `Cc1cc(Cl)ccc1C(=O)NN(CCF)CCF` returned a melting point of 85 to 87 °C. For `CCOc1ccc(-c2cc(C(F)(F)F)n3ncc(-c4ccncc4)c3n2)cc1C(F)(F)F`, the melting point was 233 °C. With `CON1C(C)(C)CC(OC(=O)CCc2cc(-n3nc4ccccc4n3)c(O)c(C(C)(C)C)c2)CC1(C)C`, the melting point fell in the range of 135 to 137 °C. The compound `CC1(O)c2ccccc2-c2c1c(-n1ccnc1)nc1ccc(Br)cc21` (stereo not given) gave a melting point of 175 to 180 °C. `COC(=O)C(c1ccccc1)n1cncc1C=O` (stereo not given): the melting point is 106 to 109 °C. Regarding `O=C1C=C(Oc2ccc(C3CCCC3)cc2)C(O)O1` (stereo not given), the melting point is 101 to 103 °C. Under `COc1cccc(C2(C(C)(C)O)CCN(C)CC2)c1` stands 100 °C; under `COC(=O)c1ccc2c(c1)S(=O)(=O)NCN2C1CC1`, 178 to 180 °C. `C#CCOc1cc(Oc2cccc(Cl)c2Cl)ncn1` showed a melting point of 91.9 °C. With `Nc1ccccc1-c1ccc(Br)cc1N`, the melting point was in the range of 61 to 62 °C.

As to `CCCCOc1ccc(C(=O)Nc2ccc3cc(CN4CCN(C)CC4)cnc3c2C)cc1`, the melting point worked out at 145 °C. To `C=CCC(O)(C(=O)N[C@H]1CN2CCC1CC2)c1cccs1` (stereo not given in full) belongs 54.4 to 58.3 °C; to `CCOC(=O)CCCCC(=O)Oc1cccc(-c2cn3c(n2)sc2ccccc23)c1`, 90 to 92 °C; to `O=C(CSc1ccnc2ccccc12)c1ccc(OCc2ccccc2)cc1`, 135 to 136 °C. Take `O=C(O)Cc1ccc(-n2cc(F)cn2)cc1`: the melting point is 165 to 167 °C. Consider `Cc1cc(OC(F)F)nc(NC(=O)NS(=O)(=O)c2cccnc2Cl)n1`, for which the melting point was 161 to 162 °C. `CCCCOc1ccc(OCCN2CCN(c3cc(Cl)nnc3Cl)CC2)cc1` came in with a melting point of 135 to 136 °C. As to `CC(=O)OCCn1c2c(c3ccccc3c1=O)C(=O)c1ccccc1-2`, the melting point lay within 221 to 224 °C. On to `CCC(O)(c1ccccc1)c1cccc(N)c1` (stereo not given), for which the melting point is 92 to 93 °C. On to `CCOC(=O)c1cnc2c3cc(OC)ccc3ccn2c1=O`, for which the melting point was in the range of 184 to 186 °C. On to `CC(=O)Nc1cc(-c2ccncc2)c[nH]c1=O`, for which the melting point is over 300 °C.

As to `COC(=O)c1nc(N(C)C(C)=O)ccc1Oc1nc(OC)cc(OC)n1`, the melting point was in the range of 119 to 121 °C. `N#CC(C=O)c1cnccn1` (stereo not given) registered a melting point of 192 to 194 °C.

On to `COc1ccc(CCCCc2ccc(OC)c(OC)c2OC)cc1OC`, for which the melting point was in the range of 165 to 167 °C. As for `Cc1cccnc1S(=O)(=O)NC(C)(C)C`, the melting point is 107 to 110 °C.

Take `Cc1cccc(N2CCN(CCc3ccc(N4CCCNC4=O)cc3)CC2)c1`: the melting point worked out at 213 °C.

`Cc1csc2[nH]c(C(=O)c3ccccc3)cc12`: the melting point amounted to 199 °C. Consider `Oc1ccccc1C=Cc1cccc2[nH]ccc12`, for which the melting point is 140 °C. In turn, `COCn1ccnc1C(O)(c1ccccc1)c1ccc(F)cc1` (stereo not given) showed a melting point of 150 °C. As for `CC(=O)c1ccc(Oc2ccc(O)cc2)cc1`, the melting point lay within 159 to 161 °C.

For the compound `CCNc1nc2ccc(COc3cccc(CN4CCCCC4)c3)cc2o1`, the melting point was 105 to 106 °C. `CCOC1CC2(C)C(CCC3C2C(=NO)CC2(C)C3CCC23OCCO3)CC1O` (stereo not given) gave a melting point of 136 to 140 °C. Take `N#Cc1cccc(-n2c(=O)c(N3CCCCCC3)cc3cccnc32)c1`: the melting point was 215 to 217 °C. Turning to `CCCCc1ncc(/C=C(\Cc2cccs2)C(=O)O)n1Cc1cccc(OC)c1[N+](=O)[O-]`, the melting point was 213 to 215 °C.

`Cc1cccc(/C=C/C2=CCN(Cc3c[nH]c4ncccc34)CC2)c1` yielded a melting point of 210 to 212 °C. The compound `Cc1cccc(-c2[nH]c(C(C)C)nc2-c2cccc(-c3cccc(S(N)(=O)=O)c3)c2)n1` displayed a melting point of 123 to 126 °C.
